Data taken from patent US9439428B2, “Herbicidal compounds” (SYNGENTA LIMITED, priority 2011, dated 2016).

What was measured:
Type in all cases: in vivo
Conditions in all cases: 1000 g/h, evaluated after 13 days, five point scale
[1] = tested on: Alopecurus myosuroides (ALOMY); assay: Post-emergence herbicidal glasshouse test
Experimental: (§1) Seeds of a variety of test species are sown in standard soil in pots (Alopecurus myosuroides (ALOMY), Setaria faberi (SETFA), Echinochloa crus-galli (ECHCG), Abuthilon theophrasti (ABUTH) and Amaranthus retoflexus (AMARE)). After cultivation for one day (pre-emergence) or after 8 days cultivation (post-emergence) under controlled conditions in a glasshouse (at 24/16° C., day/night; 14 hours light; 65% humidity), the plants are sprayed with an aqueous spray solution derived from the formulation of the technical active ingredient in acetone/water (50:50) solution containing 0.5% Tween 20 (polyoxyethelyene sorbitan monolaurate, CAS RN 9005-64-5). Compounds ae applied at 1000 g/h. The test plants are then grown in a glasshouse under controlled conditions in a glasshouse (at 24/16° C., day/night; 14 hours light; 65% humidity) and watered twice daily. After 13 days for pre and post-emergence, the test is evaluated for the percentage herbicidal damage caused to the plant. The biological activities are shown in the following table on a five point scale (5=80-100% damage; 4=60-79% damage; 3=40-59% damage; 2=20-39% damage; 1=0-19% damage).

[2] = tested on: Amaranthus retoflexus (AMARE); assay: Post-emergence herbicidal glasshouse test
Experimental: as §1

[3] = tested on: Setaria faberi (SETFA); assay: Post-emergence herbicidal glasshouse test
Experimental: as §1

[4] = tested on: Abuthilon theophrasti (ABUTH); assay: Post-emergence herbicidal glasshouse test
Experimental: as §1

[5] = tested on: Echinochloa crus-galli (ECHCG); assay: Post-emergence herbicidal glasshouse test
Experimental: as §1

[6] = tested on: Alopecurus myosuroides (ALOMY); assay: Pre-emergence herbicidal glasshouse test
Experimental: as §1

[7] = tested on: Amaranthus retoflexus (AMARE); assay: Pre-emergence herbicidal glasshouse test
Experimental: as §1

[8] = tested on: Setaria faberi (SETFA); assay: Pre-emergence herbicidal glasshouse test
Experimental: as §1

[9] = tested on: Abuthilon theophrasti (ABUTH); assay: Pre-emergence herbicidal glasshouse test
Experimental: as §1

[10] = tested on: Echinochloa crus-galli (ECHCG); assay: Pre-emergence herbicidal glasshouse test
Experimental: as §1

COc1ccc(-n2nc(C)cc(C(=O)C3C(=O)C4CCC(C4)C3=O)c2=O)cc1 (stereo not drawn) [Compound 1.4]
5 (5=80-100% damage): percentage herbicidal damage, ALOMY, POST Application [1] | percentage herbicidal damage, AMARE, POST Application [2] | percentage herbicidal damage, SETFA, POST Application [3] | percentage herbicidal damage, ABUTH, POST Application [4] | percentage herbicidal damage, ECHCG, POST Application [5] | percentage herbicidal damage, ALOMY, PRE Application [6] | percentage herbicidal damage, AMARE, PRE Application [7] | percentage herbicidal damage, SETFA, PRE Application [8] | percentage herbicidal damage, ABUTH, PRE Application [9] | percentage herbicidal damage, ECHCG, PRE Application [10]

Cc1cc(C(=O)C2C(=O)CC(C)CC2=O)c(=O)n(-c2ccccc2)n1 (stereo not drawn) [Compound 1.9]
5 (5=80-100% damage): percentage herbicidal damage, ALOMY, POST Application [1] | percentage herbicidal damage, AMARE, POST Application [2] | percentage herbicidal damage, SETFA, POST Application [3] | percentage herbicidal damage, ABUTH, POST Application [4] | percentage herbicidal damage, ECHCG, POST Application [5] | percentage herbicidal damage, ALOMY, PRE Application [6] | percentage herbicidal damage, AMARE, PRE Application [7] | percentage herbicidal damage, SETFA, PRE Application [8] | percentage herbicidal damage, ABUTH, PRE Application [9] | percentage herbicidal damage, ECHCG, PRE Application [10]

COc1ccc(-n2nc(C)cc(C(=O)C3C(=O)CCCC3=O)c2=O)cc1 [Compound 1.3]
5 (5=80-100% damage): percentage herbicidal damage, ALOMY, POST Application [1] | percentage herbicidal damage, AMARE, POST Application [2] | percentage herbicidal damage, SETFA, POST Application [3] | percentage herbicidal damage, ABUTH, POST Application [4] | percentage herbicidal damage, ECHCG, POST Application [5] | percentage herbicidal damage, ALOMY, PRE Application [6] | percentage herbicidal damage, AMARE, PRE Application [7] | percentage herbicidal damage, SETFA, PRE Application [8] | percentage herbicidal damage, ABUTH, PRE Application [9] | percentage herbicidal damage, ECHCG, PRE Application [10]

Cc1cc(C(=O)C2C(=O)C3CCC(C3)C2=O)c(=O)n(-c2ccccc2)n1 (stereo not drawn) [Compound 1.7]
5 (5=80-100% damage): percentage herbicidal damage, ALOMY, POST Application [1] | percentage herbicidal damage, AMARE, POST Application [2] | percentage herbicidal damage, SETFA, POST Application [3] | percentage herbicidal damage, ABUTH, POST Application [4] | percentage herbicidal damage, ECHCG, POST Application [5] | percentage herbicidal damage, ALOMY, PRE Application [6] | percentage herbicidal damage, AMARE, PRE Application [7] | percentage herbicidal damage, SETFA, PRE Application [8] | percentage herbicidal damage, ABUTH, PRE Application [9] | percentage herbicidal damage, ECHCG, PRE Application [10]

Cc1cc(C(=O)C2C(=O)CCCC2=O)c(=O)n(-c2ccccc2)n1 [Compound 1.2, 2-(6-Methyl-3-oxo-2-phenyl-2,3-dihydropyridazine-4-carbonyl)-cyclohexane-1,3-dione]
5 (5=80-100% damage): percentage herbicidal damage, ALOMY, POST Application [1] | percentage herbicidal damage, AMARE, POST Application [2] | percentage herbicidal damage, SETFA, POST Application [3] | percentage herbicidal damage, ABUTH, POST Application [4] | percentage herbicidal damage, ECHCG, POST Application [5] | percentage herbicidal damage, ALOMY, PRE Application [6] | percentage herbicidal damage, AMARE, PRE Application [7] | percentage herbicidal damage, SETFA, PRE Application [8] | percentage herbicidal damage, ABUTH, PRE Application [9] | percentage herbicidal damage, ECHCG, PRE Application [10]

Cc1cc(C(=O)C2C(=O)CC(C)CC2=O)c(=O)n(-c2ccccc2C)n1 (stereo not drawn) [Compound 1.6]
5 (5=80-100% damage): percentage herbicidal damage, ALOMY, POST Application [1] | percentage herbicidal damage, AMARE, POST Application [2] | percentage herbicidal damage, SETFA, POST Application [3] | percentage herbicidal damage, ABUTH, POST Application [4] | percentage herbicidal damage, ECHCG, POST Application [5] | percentage herbicidal damage, ALOMY, PRE Application [6] | percentage herbicidal damage, AMARE, PRE Application [7] | percentage herbicidal damage, SETFA, PRE Application [8] | percentage herbicidal damage, ABUTH, PRE Application [9] | percentage herbicidal damage, ECHCG, PRE Application [10]

COc1ccc(-n2nc(C)cc(C(=O)C3C(=O)CC(C)CC3=O)c2=O)cc1 (stereo not drawn) [Compound 1.5]
5 (5=80-100% damage): percentage herbicidal damage, ALOMY, POST Application [1] | percentage herbicidal damage, AMARE, POST Application [2] | percentage herbicidal damage, SETFA, POST Application [3] | percentage herbicidal damage, ABUTH, POST Application [4] | percentage herbicidal damage, ECHCG, POST Application [5] | percentage herbicidal damage, ALOMY, PRE Application [6] | percentage herbicidal damage, AMARE, PRE Application [7] | percentage herbicidal damage, SETFA, PRE Application [8] | percentage herbicidal damage, ABUTH, PRE Application [9] | percentage herbicidal damage, ECHCG, PRE Application [10]

Cc1cc(C(=O)C2C(=O)C(C)(C)C(=O)C(C)(C)C2=O)c(=O)n(-c2ccccc2)n1 [Compound 1.8]
5 (5=80-100% damage): percentage herbicidal damage, ALOMY, POST Application [1] | percentage herbicidal damage, AMARE, POST Application [2] | percentage herbicidal damage, SETFA, POST Application [3] | percentage herbicidal damage, ABUTH, POST Application [4] | percentage herbicidal damage, ECHCG, POST Application [5] | percentage herbicidal damage, ALOMY, PRE Application [6] | percentage herbicidal damage, AMARE, PRE Application [7] | percentage herbicidal damage, SETFA, PRE Application [8] | percentage herbicidal damage, ABUTH, PRE Application [9] | percentage herbicidal damage, ECHCG, PRE Application [10]

O=C1CCCC(=O)C1C(=O)c1ccnn(-c2ccccc2)c1=O [Compound 1.1, 2-(3-Oxo-2-phenyl-2,3-dihydropyridazine-4-carbonyl)-cyclohexane-1,3-dione]
5 (5=80-100% damage): percentage herbicidal damage, ALOMY, POST Application [1] | percentage herbicidal damage, AMARE, POST Application [2] | percentage herbicidal damage, SETFA, POST Application [3] | percentage herbicidal damage, ABUTH, POST Application [4] | percentage herbicidal damage, ECHCG, POST Application [5] | percentage herbicidal damage, ALOMY, PRE Application [6] | percentage herbicidal damage, AMARE, PRE Application [7] | percentage herbicidal damage, SETFA, PRE Application [8] | percentage herbicidal damage, ABUTH, PRE Application [9] | percentage herbicidal damage, ECHCG, PRE Application [10]
